# In patent publication US11065244B2, “Methods of use of tetrahydroberberine (THB)” (DIGNITY HEALTH, priority 2010, dated 2021):
# Legend:
# SNc DA neurons = assay: Perforated patch current-clamp recording of membrane potential and firing of dissociated SNc DA neurons, substance applied alone; assay type: cell-based, rat
# Procedure: (§1) The protocol for preparation of single neurons from the rat SNc was approved by the Institutional Animal Care and Use Committee of the Barrow Neurological Institute. Single DA neurons were acutely dissociated from the SNc of 2-3-week-old Wistar rats following the protocol as previously described. Briefly, rats were anesthetized with isoflurane, and brain tissue was rapidly removed and immersed in cold (2-4° C.) dissection solution which contained: 136.7 mM NaCl, 5 mM KCl, 0.1 mM Na2HPO4, 0.2 mM KH2PO4, 9.84 mM HEPES, 16.6 mM D-glucose, 21.9 mM sucrose, pH 7.3, 330 mOsm, oxygenated with 100% O2 [8]. Three 400-μm coronal slices containing the SNc were cut using a vibrotome (Vibroslice 725M, WPI, Sarasota, Fla.). After cutting, slices were continuously bubbled with 95% O2-5% CO2 at room temperature (22±1° C.) for at least one hour in artificial cerebrospinal fluid (ACSF), which contained: 124 mM NaCl, 5 mM KCl, 24 mM NaHCO3, 1.3 mM MgSO4, 1.2 mM KH2PO4, 2.4 mM CaCl2, and 10 mM glucose, pH 7.4. Thereafter, slices were treated with pronase (1 mg per 6 ml) at 31° C. for 30 minutes in ACSF. The SNc was identified in a coronal slice using a stereo microscope with reference to the rat brain atlas, and was micro-punched out from slices using a well-polished needle. One punched piece was then transferred to a 35-mm culture dish filled with well-oxygenated standard extracellular solution, which contained: 150 mM NaCl, 5 mM KCl, 1 mM MgCl2, 2 mM CaCl2, 10 mM glucose 10, and 10 mM HEPES, pH 7.4 (with Tris-base). The punched piece was then dissociated mechanically using a fire-polished micro-Pasteur pipette under an inverted microscope (Olympus IX-70, Lake Success, N.Y.). The separated cells adhered to the bottom of the culture dish within 30 minutes. In the present study, we used only DA neurons that maintained their original morphological features of polygonal, large or medium somata with 2-4 thick primary dendritic processes were used.
# Perforated patch whole-cell recording techniques were employed as previously described. Pipettes (3-5 MΩ) used for perforated patch recording were filled with intracellular recording solution containing 140 mM potassium gluconate, 10 mM KCl, 5 mM MgCl2, and 10 mM HEPES, pH 7.2 (with Tris-OH). The amphotericin B was freshly prepared to 200-240 μg/ml from a 40 mg/ml in DMSO stock. The liquid junction potential was 14 mV calculated using Clamplex 9.2 (Axon Instruments, Foster City, Calif.) and corrections were made for junction potentials post-hoc. After tight seal (>2 GΩ) formation, it usually took about 5-20 min to convert to perforated patch mode, and an access resistance of 20-60 MΩ was accepted to start the experiments. Series resistance was not compensated in this study. The data were filtered at 2 kHz, acquired at 10 kHz and digitized on-line (Digidata 1322 series A/D board, Axon Instruments, Foster City, Calif.). […] Drug application was performed using a computer-controlled “U-tube” system as previously described. All experiments were performed at room temperature (22±1° C.). To enable identification of single, dissociated SNc neurons after a patch-clamp recording session, the recording pipette was filled with a fluorescent dye (lucifer yellow CH, Sigma Chemical Co., St. Louis, Mo., 1.0 mg/ml in the recording electrode) in some experiments. After conversion from the perforated patch to the conventional whole-cell recording mode, the dye was ejected into the cytoplasm by a pulse (200 ms, 0.5 Hz) of hyperpolarizing current (1.0 nA) for 3 min. Labeled cells were visualized using epifluorescence microscopy. […]
# neuronal KATP channels = target: T1, neuronal KATP channels (Rattus norvegicus, UniProt P70673+Q09429); assay: Rotenone-induced outward current in voltage-clamp mode in the presence of the D2 receptor antagonist sulpiride; assay type: cell-based; details: 100 mM substance as printed; sulpiride present; VH −30 mV; from 125.8±37.1 pA; 6 neurons; p<0.01
# T1 construct: functional KATP channels natively expressed on midbrain dopamine neurons; from tissue; host or cells: acutely dissociated dopaminergic neurons of rat substantia nigra pars compacta
# T1 sequence (P70673 whole entry): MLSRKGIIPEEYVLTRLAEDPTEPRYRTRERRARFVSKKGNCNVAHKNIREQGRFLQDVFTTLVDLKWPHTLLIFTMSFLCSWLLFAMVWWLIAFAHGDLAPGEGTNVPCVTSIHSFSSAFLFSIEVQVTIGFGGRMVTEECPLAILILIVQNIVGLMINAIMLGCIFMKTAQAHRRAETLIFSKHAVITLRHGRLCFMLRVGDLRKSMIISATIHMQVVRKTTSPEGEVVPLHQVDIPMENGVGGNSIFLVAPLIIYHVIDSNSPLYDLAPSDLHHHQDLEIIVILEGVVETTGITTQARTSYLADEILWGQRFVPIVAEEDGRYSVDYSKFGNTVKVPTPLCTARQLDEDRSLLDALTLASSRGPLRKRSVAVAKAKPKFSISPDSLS
# T1 sequence (Q09429 whole entry): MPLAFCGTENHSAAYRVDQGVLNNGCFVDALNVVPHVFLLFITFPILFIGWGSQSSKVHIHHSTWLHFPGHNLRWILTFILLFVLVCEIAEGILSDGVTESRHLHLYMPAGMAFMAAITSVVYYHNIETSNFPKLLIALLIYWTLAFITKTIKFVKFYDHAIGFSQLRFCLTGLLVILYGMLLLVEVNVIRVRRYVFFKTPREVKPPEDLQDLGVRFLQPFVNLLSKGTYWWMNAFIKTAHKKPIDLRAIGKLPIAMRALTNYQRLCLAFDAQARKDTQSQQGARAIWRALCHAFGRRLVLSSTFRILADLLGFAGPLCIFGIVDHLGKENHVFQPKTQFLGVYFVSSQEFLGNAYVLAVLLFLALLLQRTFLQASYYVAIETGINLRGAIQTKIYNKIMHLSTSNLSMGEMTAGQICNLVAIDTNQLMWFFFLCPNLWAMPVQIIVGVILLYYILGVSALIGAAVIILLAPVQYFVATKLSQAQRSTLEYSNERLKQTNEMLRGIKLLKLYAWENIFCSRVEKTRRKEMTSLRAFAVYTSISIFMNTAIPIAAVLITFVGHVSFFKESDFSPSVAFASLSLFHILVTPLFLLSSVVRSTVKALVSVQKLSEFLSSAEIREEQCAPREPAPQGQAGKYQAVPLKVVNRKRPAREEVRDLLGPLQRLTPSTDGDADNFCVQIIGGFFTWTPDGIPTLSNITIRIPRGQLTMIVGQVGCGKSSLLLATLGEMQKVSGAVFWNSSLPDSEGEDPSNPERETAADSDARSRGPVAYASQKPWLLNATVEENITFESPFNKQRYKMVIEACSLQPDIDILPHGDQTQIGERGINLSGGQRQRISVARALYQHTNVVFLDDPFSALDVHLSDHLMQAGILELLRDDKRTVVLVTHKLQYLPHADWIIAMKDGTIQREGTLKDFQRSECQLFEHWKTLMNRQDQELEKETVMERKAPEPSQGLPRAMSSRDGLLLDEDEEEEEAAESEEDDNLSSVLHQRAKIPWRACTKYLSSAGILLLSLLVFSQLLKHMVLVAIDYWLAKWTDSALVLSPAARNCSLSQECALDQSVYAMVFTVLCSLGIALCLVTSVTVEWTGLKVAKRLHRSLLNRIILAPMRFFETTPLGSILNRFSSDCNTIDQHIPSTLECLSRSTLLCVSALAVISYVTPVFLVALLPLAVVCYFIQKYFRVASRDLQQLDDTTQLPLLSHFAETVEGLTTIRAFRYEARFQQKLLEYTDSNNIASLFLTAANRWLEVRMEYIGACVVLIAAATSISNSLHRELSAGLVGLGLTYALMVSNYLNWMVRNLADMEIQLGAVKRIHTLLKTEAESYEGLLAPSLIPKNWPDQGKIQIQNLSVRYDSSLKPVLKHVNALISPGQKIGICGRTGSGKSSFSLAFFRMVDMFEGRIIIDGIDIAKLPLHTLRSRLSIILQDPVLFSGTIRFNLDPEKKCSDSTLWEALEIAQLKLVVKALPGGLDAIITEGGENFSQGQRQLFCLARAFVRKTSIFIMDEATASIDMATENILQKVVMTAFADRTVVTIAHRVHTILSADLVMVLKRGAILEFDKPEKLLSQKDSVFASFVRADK
# Procedure: as §1, with “In the present study, we used only DA neurons that maintained their original morphological features of polygonal, large or medium somata with 2-4 thick primary dendritic processes were used.” left out
# Perforated patch whole-cell recording techniques were employed as previously described. […] The liquid junction potential was 14 mV calculated using Clamplex 9.2 (Axon Instruments, Foster City, Calif.) and corrections were made for junction potentials post-hoc. […]
smiles,measurement,setting,value
"COc1ccc2c(c1OC)CN1CCc3cc4c(cc3C1C2)OCO4 (stereo not drawn) [THB, tetrahydroberberine]",firing rate of spontaneous action potentials after exposure,"SNc DA neurons; 100 μM bath-perfusion, before exposure 1.4 Hz, n=7, p<0.05",2.2 Hz
same,membrane potential after exposure to substance alone,"SNc DA neurons; 100 μM, before: THB −46.5±0.9 (n=7), tolbutamide −44.4±1.6 (n=5)",−41.3±1.9 mV
same,rotenone-induced outward current amplitude after addition of substance,neuronal KATP channels,52.5±25.7 pA
